Measured values published in US9399032B2, “Methods and compositions for treating degenerative and ischemic disorders” (The General Hospital Corporation, priority 2009, dated 2016).
Structures can show the parent of a compound that is named as a salt.

What was measured:
[1] = test system: MCH58 fibroblasts; test: Cellular oxygen consumption rate (OCR), extracellular acidification rate (ECAR) and lactic acid production; format: cell-based, human
Description: Cellular oxygen consumption and extracellular acidification assays were performed as follows. Briefly, MCH58 fibroblasts were seeded in XF24-well cell culture microplates (Seahorse Bioscience) at 30,000 cells/well in 10 mM glucose or 10 mM galactose media and incubated at 37° C./5% CO2 for ˜20 hours. Prior to the measurements, the growth medium was replaced with ˜925 μL of assay medium. The assay medium consisted of DMEM Base (Sigma Cat No D5030), 2 mM GlutaMax-1 (Gibco Cat No 350350-061), 1 mM Sodium Pyruvate (Sigma Cat No S8636), 10 mM Glucose (Sigma Cat No G8270) or Galactose (Sigma Cat No G5388), (1.85 g/L) Sodium Chloride and (15 mg/L) phenol red. The pH of the assay medium was adjusted to 7.4 with 1 N Sodium Hydroxide. The cells were incubated at 37° C. for 60 min in the assay medium prior to measurements.
The OCR and ECAR measurements on HeLa, 293, and STHdh^Q7/7 mouse striatal cells were carried out by growing them in XF24 plates at 40,000/well (HeLa) and STHdh^Q7/7 mouse striatal cells) and 60,000/well (293 cells) for ˜20 hours in their regular growth conditions. The assay medium was the same as above except that 25 mM glucose was used as the sugar source. The measurements were performed simultaneously every 7 minutes after a 2 minute mix and 2 minute wait period for MCH fibroblasts and every 6 minutes (with 2 minutes mix and 2 minute wait) for HeLa, 293, and STHdh^Q7/7 mouse striatal cells. Three baseline measurements were recorded prior to the addition of oligomycin (Biochemika 75352), Antimycin (Sigma A8674), roetnone (Sigma R8875), carbonyl cyanide 3-chlorophenylhydrazone (Sigma C2759) and meclizine hydrochloride (MSDiscovery 01500376). 50 mM stock solution of meclizine was made in DMSO, which was diluted to specified concentration in assay medium and its pH was adjusted to 7.4 by 1N Sodium hydroxide solution. The measurements were carried out at 33° C. for mouse striatal cells but for all other cell types measurement were done at 37° C.

[2] = test system: Immortalized mouse striatal 20A5 cells; test: Oxygen and glucose deprivation model of ischemia and reperfusion; format: cell-based; conditions: 25 μM pretreatment for 8 hours, over vehicle
Description: Immortalized mouse striatal 20A5 cells grown in DMEM with 10% dialyzed fetal bovine serum were exposed to oxygen and glucose deprivation for 18 hours followed by 12 hours of recovery in normoxia with full media. This IR model induces roughly 30% decrease in cell viability as measured by the ATP luminescence assay CellTiter-GLO.

[3] = test system: STHdhQ111/111 striatal cells; test: Viability of mutant huntingtin striatal cells after serum withdrawal (CellTiter-Glo); format: cell-based, murine
Description: Wherever indicated, mutant (STHdh^Q111/111) striatal cells were grown in serum free media for ˜24 hours before ATP measurement. Luminescence was measured in DTX880 multimode detector. Multiple concentrations (between 100 μM and 0.5 μM) of rotenone, antimycin, oligomycin, meclizine, hydroxyzine (Spectrum chemical), thiethylperazine (Prestwick), cyproheptadine (Sigma), pyrilamine (Spectrum chemical), tripelennamine (Spectrum chemical), diphenhydramine (Spectrum chemical), clemastine (Prestwick), bromopheniramine (Spectrum chemical), pheniramine (Spectrum chemical), promethazine (MSDiscovery 01500510), atropine (Sigma), and scopolamine (Sigma) were tested for their protective effect on STHdh^Q111/111 cells in serum free media. The dose which conferred maximum protection is shown. Luminescence was measured in DTX880 multimode detector.
Although it is not necessary to understand the mechanism of an invention, it is believed that the observed cell survival may be due to suppressed apoptosis based on caspase 3 and 7 cleavage. Improved cell viability was confirmed by microscopy.

[4] = test system: Trypanosoma brucei; test: Effectiveness against Trypanosoma brucei; format: cell-based; conditions: kills Trypanosoma brucei; read-out: ED50 (the source's name)
[5] = test system: Mitochondria isolated from C57BL/6 mouse kidneys; test: Bioenergetics of isolated mitochondria; format: biochemical; conditions: acute addition
Description: Mootha et al., Am J Physiol 272:[…] (1997). State 2 respiration was initiated with the addition of 2.5 mM glutamate and 2.5 mM malate. State 3 respiration was initiated with the addition of 50 nmoles ADP. Uncoupled respiration was initiated with the addition of 5 μM CCCP (Sigma Cat No C2759). O2 consumption was monitored with a Fiber Optic Oxygen sensor probe from Ocean Optics, and NADH (endogenous, 370±7 nm excitation, 440±4 nm emission) and membrane potential (1.25 μM TMRM, 546±7 nm excitation, 590±4 nm emission) were measured with a Perkin-Elmer LS50B fluorimeter. A representative trace is shown from 6 independent experiments. 1M stock of phosphoethanolamine (Sigma P0503) was made in sterile water and pH was adjusted to 7.4 by 1N potassium hydroxide solution.

[6] = test system: Adult rat ventricular cardiomyocytes; test: Simulated ischemia-reperfusion injury in isolated cardiomyocytes; format: cell-based
Description: The ability of meclizine to protect isolated cardiomyocytes and isolated hearts from ischemic injury was investigated as follows Adult rat ventricular cardiomyocytes were isolated by endotoxin-free collagenase perfusion, and the simulated ischemia-reperfusion injury was performed as previously described (Wojtovich and Brookes, Basic Res. Cardiol., 104:121-129 (2009)). Control cells were exposed to DMSO for 20 minutes. Test cells were exposed to either vehicle or doses of meclizine for 20 minutes, which was washed out before being subjected to ischemia for 60 minutes followed by reperfusion for 30 minutes under normoxic conditions in normoxic glucose-replete buffer at pH 7.4. Cell viability was assayed by Trypan blue exclusion. VO2 was assessed by isolating mitochondria and measuring both respirating cells and mitochondria using a Clark oxygen electrode (Wojtovich, supra).

[7] = test system: 293 cells; test: Uncoupler (CCCP)-stimulated respiration in intact cells; format: cell-based; conditions: 25 μM, 6 hours pre-treatment
Description: 293 cells pre-treated with 25 μM meclizine for 6 hours fail to stimulate oxygen consumption to the same extent as DMSO treated controls after treatment with CCCP. Data expressed as mean±SD (n=3; *p value<0.01).
The upregulation of phosphoethanolamine was confirmed by orthogonal chromatography, as well as via ^31P-NMR. […] Previous studies have shown that phosphoethanolamine can be elevated in tumor cells, and that ethanolamine and PEA can directly silence mitochondrial OXPHOS. Zhu et al., J Lipid Res 49: 2197 (2008); and Modica-Napolitano et al., Biol Psychiatry 55:273 (2004). To test the effect of phosphoethanolamine (PEA) on mitochondrial respiration, mitochondria were incubated with varying concentration of phosphoethanolamine for ˜1 min prior to the addition of 2.5 mM glutamate and 2.5 mM malate followed by the addition of 1 μM CCCP. […] See FIGS. 16A and 16B, respectively.

`Cc1cccc(CN2CCN(C(c3ccccc3)c3ccc(Cl)cc3)CC2)c1` (racemic) [Meclizine, meclizine hydrochloride] was tested, and the “Km for switching energy metabolism versus published Km for blocking H1 receptors” value [1] was “about a hundred fold higher”, the lactic acid production ([1]; requiring several hours to develop) was “increased lactic acid production in a dose-dependent manner” and the oxygen consumption rates ([1]; whole cell bioenergetic kinetic assays) was “reduced oxygen consumption rates”. For the same molecule, the “cell viability after oxygen and glucose deprivation” value [2] was “significant improvement in cell viability”, the EC50 ([3]; Mus musculus, STHdhQ111, 24 hours after removal of serum, read-out: EC50 of cell survival (rescue)) was roughly 17.3 µM and the “protection of STHdhQ111/111 cells after serum withdrawal” value ([3]; serum free media, 24 hours) was “conferred the most protection”. For the same molecule, the EC50 [4] was 1.41 ± 0.12 µM, the “mitochondrial oxygen consumption in isolated mitochondria” value [5] was “had no effect” and the “protection against I/R at high concentrations” value ([6]; 50 μM and 100 μM) was “not observed”. The “protection of cardiomyocytes against I/R (cell viability, Trypan blue)” value ([6]; 60 minutes ischemia, 30 minutes reperfusion) was “protected cardiomyocytes against I/R at various concentrations”, the VO2 in cardiomyocytes ([6]; compared to DMSO treated cells) was “decrease in VO2” and the “uncoupler-stimulated respiration in intact cells” value [7] was “blunts uncoupler-stimulated respiration”.
